From patent US5376679A, “Bicyclic or tricyclic biocidal compounds” (Shell Internationale Research Maatschappij B.V., priority 1988, dated 1994)
≈ marks a conversion by molar mass, not a printed value. Each block holds one compound with its values, some of them ahead of it.

Tests used:
Staphylococcus aureus = assay: Minimum inhibitory concentration, Staphylococcus aureus (Sa); assay type: cell-based, Staphylococcus aureus (NCIB 6571); conditions: 30° C., 24 and 72 hours
Description: (§1) In respect of S. aureus, B. subtilis and E. coli, the microorganisms were cultured in 50 ml aliquots of a tryptone soya broth in 250 ml conical flasks at 30° C. on a rotary shaker at 200 rpm for 24 hours. Tryptone soya broth was prepared by adding 17 g pancreatic digest of casein, 3 g […] digest of soyabean meal, 5 g of sodium chloride, 2.5 g of dipotassium hydrogen phosphate and 2.5 g of dextrose to 1 liter of distilled water, mixing and sterilising by autoclaving at 121° C. for 15 minutes. 1 ml aliquots of the resulting cultures were mixed with 99 ml of fresh tryptone soya broth and used as inocula for tests. […] Test procedures were as follows: (ii) Dilution Series for Other Test Bacteria, Yeast and Filamentous Fungi Dilution series from the stock solution of each compound were prepared in sterile distilled water. These contained 50, 100, 500 and 1000 ppm compound. To duplicate wells of a compartmentalised square petri dish 0.3 ml of each test compound concentration was added together with 2.7 ml of one of the microbial inocula described above. […] After incubation, in the dark, at 30° C. the wells were examined for the presence or absence of growth. Bacterial and yeast cultures were examined after 24 hours and 72 hours incubation and the fungi cultures after 3, 7 and 10 days. By means of the above tests minimum inhibitory concentrations were determined for the various test compounds.

Bacillus subtilis = assay: Minimum inhibitory concentration, Bacillus subtilis (Bs); assay type: cell-based; conditions: 30° C., 24 and 72 hours
Description: as §1

Escherichia coli = assay: Minimum inhibitory concentration, Escherichia coli (Ec); assay type: cell-based, Escherichia coli (NCIB 9517); conditions: 30° C., 24 and 72 hours
Description: as §1

Desulfovibrio sp. = assay: Minimum inhibitory concentration, sulphate-reducing bacteria (Dsp); assay type: cell-based; conditions: 30° C., 2, 5 and 10 days
Description: The sulphate reducing bacteria Desulfovibrio sp. were cultured in a modified Postgate's Medium B for 48 hours at 30° C. and used directly as an inoculum. The modified Postgate's Medium B consisted of 0.5 g dipotassium hydrogen phosphate, 1 g ammonium chloride, 1 g sodium sulphate, 5 g sodium lactate, 1 g yeast extract, 0.1 ml thioglycolic acid, 0.1 ml ascorbic acid, 0.5 g ferrous sulphate heptahydrate, 750 ml aged seawater and 250 ml distilled water, pH adjusted to 7.8, divided into aliquots and sterilised by autoclaving at 121° C. for 15 minutes. […] Test procedures were as follows: (i) Suphate-reducing Bacteria Test Dilution Series Duplicate aliquots (9.9 ml) of dilution series from the stock solutions of each compound were prepared in a modified Postgate's Medium B described above. These contained 100 ppm compound. These were then inoculated with 0.1 ml of inoculum. After incubation at 30° C., the presence or absence of growth--as indicated by a blackening of the medium due to ferrous sulphide production--was recorded at 2, 5 and 10 days. […] By means of the above tests minimum inhibitory concentrations were determined for the various test compounds.

Saccharomyces cerevisiae = assay: Minimum inhibitory concentration, yeast (Sc); assay type: cell-based, Saccharomyces cerevisiae (ATCC 9763); conditions: 30° C., 24 and 72 hours
Description: Inocula of S. cerevisiae were prepared as for S. aureus, B. subtilis and E. coli, but using yeast malt broth in place of the typtone soya broth. The yeast malt broth was prepared by suspending 3 g yeast extract, 3 g malt extract, 5 g peptone and 10 g dextrose in 1 liter of distilled water, warming to achieve solution and sterilising by autoclaving at 121° C. for 15 minutes.
(§2) Test procedures were as follows:
(§3) (ii) Dilution Series for Other Test Bacteria, Yeast and Filamentous Fungi
(§4) Dilution series from the stock solution of each compound were prepared in sterile distilled water. These contained 50, 100, 500 and 1000 ppm compound. To duplicate wells of a compartmentalised square petri dish 0.3 ml of each test compound concentration was added together with 2.7 ml of one of the microbial inocula described above. This gave final concentrations of the test compound of 5, 10, 50 and 100 ppm.
(§5) After incubation, in the dark, at 30° C. the wells were examined for the presence or absence of growth. Bacterial and yeast cultures were examined after 24 hours and 72 hours incubation and the fungi cultures after 3, 7 and 10 days.
(§6) By means of the above tests minimum inhibitory concentrations were determined for the various test compounds.

Aspergillus niger = assay: Minimum inhibitory concentration, Aspergillus niger (An); assay type: cell-based, Aspergillus niger (CMI 17454); conditions: 30° C., 3, 7 and 10 days
Description: (§7) Inocula of the fungi Aspergillus niger, Cladosporium resinae and Chaetomium globosum were prepared containing 5×10^5 conidia/ml in a potato dextrose broth. The potato dextrose broth was prepared by suspending 4 g potato extract and 20 g dextrose in 1 liter of distilled water, warming to achieve solution, separating into aliquots and sterilising by autoclaving at 121° C. for 15 minutes.
as §2, §3, §4, §5, §6

Cladosporium resinae = assay: Minimum inhibitory concentration, Cladosporium resinae (Cr); assay type: cell-based; conditions: Amorphotheca resinae, 30° C., 3, 7 and 10 days
Description: as §7, §2, §3, §4, §5, §6

Chaetomium globosum = assay: Minimum inhibitory concentration, Chaetomium globosum (Chg); assay type: cell-based; conditions: 30° C., 3, 7 and 10 days
Description: as §7, §2, §3, §4, §5, §6

Plasmopara viticola = assay: Direct protectant activity against vine downy mildew (Pvp); assay type: in vivo; design: Pvp: direct protectant activity against vine downy mildew: scale not given here; conditions: for Pvp: direct protectant activity against vine downy mildew: foliar spray, 1 kg/ha, activity grade 1 or 2, not defined
Text: (a) Direct Protectant Activity Against Vine Downy Mildew (Plasmopara viticola; Pvp)
The test is a direct protectant one, using a foliar spray. The lower surfaces of leaves of whole vine plants (cv Cabernet Sauvignon) are sprayed with a solution of active material in 1:1 v/v water/acetone containing 0.04% w "Triton X-155" (trade mark) (octylphenol polyoxyethylene surfactant), at a dosage of 1 kilogram of active material per hectare using a track sprayer which delivers 620 liters/ha, and after a subsequent 24 hours under normal glasshouse conditions the lower surfaces of the leaves are inoculated by spraying with an aqueous solution containing 10^4 zoosporangia/ml. The inoculated plants are kept for 24 hours in a high humidity compartment, 5 days under normal glasshouse conditions and then returned for a further 24 hours to high humidity. Assessment is based on the percentage of leaf area covered by sporulation compared with that on control leaves.

Leptosphaeria nodorum = assay: Direct antisporulant activity against wheat leafspot (Ln); assay type: in vivo; design: scale not given here; conditions: foliar spray, 1 kg/ha; activity grade 1 or 2, not defined
Description: (e) Activity Against Wheat Leafspot (Leptosphaeria nodorum; Ln) The test is a direct antisporulant one, using a foliar spray. Leaves of wheat plants ([…]), at the single leaf stage, are inoculated by spraying with an aqueous suspension containing 8×10^5 spores/mi. The inoculated plants are kept for 24 hours in a high humidity compartment prior to treatment. […] After drying, the plants are kept for 5 days under normal glasshouse conditions, followed by assessment. Assessment is based on the percentage of leaf area covered by sporulation compared with that on leaves of control plants.

[1] = system: Erysiphe graminis f.sp. hordei; assay: Direct antisporulant activity against barley powdery mildew (Eg); assay type: in vivo; design: scale not given here; conditions: foliar spray, 1 kg/ha; activity grade 1 or 2, not defined
Text: (f) Activity Against Barley Powdery Mildew (Erysiphe graminis f.sp. hordei; Eg) The test is a direct antisporulant one, using a foliar spray. Leaves of barley seedlings, cultivar Golden Promise, are inoculated by dusting with mildew conidia one day prior to treatment with the test compound. The inoculated plants are kept overnight at glasshouse ambient temperature and humidity prior to treatment. […] After drying, plants are returned to a compartment at ambient temperature and humidity for up to 7 days, followed by assessment. Assessment is based on the percentage of leaf area covered by sporulation compared with that on leaves of control plants.

MIC (Staphylococcus aureus): > 100 µg/mL | MIC (Bacillus subtilis): 50 to 100 µg/mL (≈ 249 to 497 µM) | MIC (Escherichia coli): > 100 µg/mL | MIC (Desulfovibrio sp.): 100 µg/mL (≈ 497 µM) | MIC (Saccharomyces cerevisiae): 25 µg/mL (≈ 124 µM) | MIC (Aspergillus niger): 10 to 25 µg/mL (≈ 49.7 to 124 µM) | MIC (Cladosporium resinae): 25 to 50 µg/mL (≈ 124 to 249 µM) | MIC (Chaetomium globosum): 25 µg/mL (≈ 124 µM)
SMILES: N#CN=[N+]([O-])c1ccc2c(c1)C=CCO2 [Example 28]

SMILES: COC(=O)N=Nc1cc(C)cc2c1OC(C)(C)C2 [Example 32]
Pvp: direct protectant activity against vine downy mildew (Plasmopara viticola): 1

SMILES: Cc1ccc(N=NC#N)c2c1CC(C)(C)O2 [Example 38]
Pvp: direct protectant activity against vine downy mildew (Plasmopara viticola): 2 | activity against Pvp (Plasmopara viticola; secondary screening): high activity

SMILES: C#CCOC(=O)N=Nc1ccc(C)c2c1OC(C)CC2 (stereo not drawn) [Example 39]
Ln: activity against wheat leafspot (Leptosphaeria nodorum): 1 | Eg: activity against barley powdery mildew [1]: 1

SMILES: C#CCOC(=O)N=Nc1cc(C)c(Cl)c2c1OC(C)CC2 (stereo not drawn) [Example 41]
Pvp: direct protectant activity against vine downy mildew (Plasmopara viticola): 1 | Eg: activity against barley powdery mildew [1]: 1

SMILES: CCOC(=O)N=Nc1cc(C)c(Cl)c2c1OC(C)CC2 (stereo not drawn) [Example 42]
Eg: activity against barley powdery mildew [1]: 2

SMILES: COC(=O)N=[N+]([O-])c1cc(C)cc2c1OC(C)(C)C2 [Example 44]
Pvp: direct protectant activity against vine downy mildew (Plasmopara viticola): 1 | Eg: activity against barley powdery mildew [1]: 2
